Values belong to the compound of their own block, whether it stands above or below them.
Legend:
Assay type in all cases: biochemical, Lithobates sylvaticus
[1] = test system: T1, muscle LDH, dehydrated (dehydrated LDH); assay: NADH production at […] nm, reverse reaction; settings: pH 8, 22 °C, 50 mM Tris
T1 construct: gene LDHA

[2] = test system: T2, muscle LDH, control (control LDH); assay: NADH production at […] nm, reverse reaction; settings: pH 8, 22 °C, 50 mM Tris
T2 construct: gene LDHA

[3] = test system: T1, muscle LDH, dehydrated (dehydrated LDH); assay: NADH consumption at […] nm, forward reaction; settings: pH 7, 22 °C, 50 mM Tris, saturating NADH (0.15 mM)
[4] = test system: T2, muscle LDH, control (control LDH); assay: NADH absorbance at […] nm, forward reaction; settings: pH 7.0, 22 °C, 50 mM Tris, saturating NADH (0.15 mM); inhibition by excess substrate
[5] = test system: T2, muscle LDH, control (control LDH); assay: NADH consumption at […] nm, forward reaction; settings: pH 7, 22 °C, 50 mM Tris, saturating NADH (0.15 mM)
[6] = test system: T1, muscle LDH, dehydrated (dehydrated LDH); assay: NADH absorbance at […] nm, forward reaction; settings: pH 7.0, 22 °C, 50 mM Tris, saturating NADH (0.15 mM); inhibition by excess substrate

- Km ([1]; saturating L-lactate (22.5 mM)): 0.64 ± 0.04 mM
- Km ([2]; saturating L-lactate (22.5 mM)): 1.38 ± 0.05 mM
Compound: NC(=O)c1ccc[n+]([C@@H]2O[C@H](COP(=O)(O)OP(=O)(O)OC[C@H]3O[C@@H](n4cnc5c(N)ncnc54)[C@H](O)[C@@H]3O)[C@@H](O)[C@H]2O)c1 [NAD]

- Km [3]: 130 ± 10 µM
- Km [5]: 160 ± 10 µM
Compound: CC(=O)C(=O)O [pyruvate]
- Control [4]: 7.93 ± 0.34 mM
- Dehydrated [6]: 8.26 ± 0.76 mM

- Km ([1]; saturating NAD (1 mM)): 5.6 ± 0.5 mM
- Km ([2]; saturating NAD (1 mM)): 11 ± 0.64 mM
Compound: C[C@H](O)C(=O)O [L-lactate]
